According to paper PMC11062922 (Nature Chemical Biology, 2023):

Tests used:
[1] = system: COX5A; test: Kinobeads competition binding: COX5A; parameters: species or system human; settings: target COX5A;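 also: share of total target engagement due to this protein at one drug concentration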
[2] = biological target: T1, MAPK14 (Homo sapiens, UniProt Q16539); test: Kinobeads competition binding: MAPK14; settings: target MAPK14
T1 construct: endogenous in cells

[3] = system: AGK; test: Kinobeads competition binding: AGK; parameters: species or system human; settings: target AGK
[4] = system: FLT3; test: Kinobeads two-dose competition binding: FLT3; parameters: species or system human; settings: for CATDS: target FLT3
[5] = biological target: T2, EPHB4 (Homo sapiens, UniProt P54760); test: Kinobeads competition binding: EPHB4; settings: target EPHB4
T2 construct: endogenous in cells
T2 sequence (P54760 16-987): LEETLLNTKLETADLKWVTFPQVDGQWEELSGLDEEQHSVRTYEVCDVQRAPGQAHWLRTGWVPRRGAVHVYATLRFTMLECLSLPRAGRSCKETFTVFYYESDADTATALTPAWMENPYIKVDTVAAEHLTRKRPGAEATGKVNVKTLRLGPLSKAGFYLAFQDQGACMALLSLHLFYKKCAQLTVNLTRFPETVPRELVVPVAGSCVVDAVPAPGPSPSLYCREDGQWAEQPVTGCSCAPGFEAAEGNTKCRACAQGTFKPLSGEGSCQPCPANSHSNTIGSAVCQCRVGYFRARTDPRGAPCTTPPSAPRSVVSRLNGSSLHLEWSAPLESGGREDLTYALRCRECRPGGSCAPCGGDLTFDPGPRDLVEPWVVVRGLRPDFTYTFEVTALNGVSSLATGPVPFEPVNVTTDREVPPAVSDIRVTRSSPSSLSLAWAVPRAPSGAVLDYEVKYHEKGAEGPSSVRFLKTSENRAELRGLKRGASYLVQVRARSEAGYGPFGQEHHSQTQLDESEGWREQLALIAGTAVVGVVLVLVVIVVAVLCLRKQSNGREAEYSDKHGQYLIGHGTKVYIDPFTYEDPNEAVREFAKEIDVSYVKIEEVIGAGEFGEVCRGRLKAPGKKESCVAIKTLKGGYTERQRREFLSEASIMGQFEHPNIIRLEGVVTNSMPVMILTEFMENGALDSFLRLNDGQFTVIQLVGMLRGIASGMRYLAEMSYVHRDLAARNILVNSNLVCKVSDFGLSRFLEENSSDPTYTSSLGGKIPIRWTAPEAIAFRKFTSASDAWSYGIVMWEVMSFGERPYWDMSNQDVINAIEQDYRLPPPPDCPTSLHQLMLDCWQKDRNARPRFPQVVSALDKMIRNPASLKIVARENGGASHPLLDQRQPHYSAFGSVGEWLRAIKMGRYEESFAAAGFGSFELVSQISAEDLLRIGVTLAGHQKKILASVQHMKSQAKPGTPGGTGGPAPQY

[6] = biological target: T3, FGFR1 (Homo sapiens, UniProt P11362); test: Kinobeads competition binding: FGFR1; settings: target FGFR1
T3 construct: endogenous in cells
From the text: Supplement 41589_2023_1459_MOESM4_ESM.xlsx, sheet "CATDS matrix" | column: FGFR1

[7] = system: MTHFD1; test: Kinobeads competition binding: MTHFD1; parameters: species or system human; settings: target MTHFD1;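 also: selectivity score: engagement of this protein divided by summed engagement of all targets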
[8] = biological target: T4, MET (Homo sapiens, UniProt P08581); test: Kinobeads two-dose competition binding: MET; settings: target MET
T4 construct: endogenous in cells

[9] = system: FN3KRP; test: Kinobeads competition binding: FN3KRP; parameters: species or system human; settings: target FN3KRP;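 also: share of total target engagement due to this protein at one drug concentration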
[10] = biological target: T5, CDK5 (Homo sapiens, UniProt Q00535); test: Kinobeads competition binding: CDK5; settings: target CDK5
T5 construct: endogenous in cells

[11] = biological target: T6, FER (Homo sapiens, UniProt P16591); test: Kinobeads competition binding: FER; settings: target FER
T6 construct: endogenous in cells
From the text: Supplement 41589_2023_1459_MOESM4_ESM.xlsx, sheet "CATDS matrix" | column: FER

[12] = system: MARK4; test: Kinobeads competition binding: MARK4; parameters: species or system human; settings: target MARK4
[13] = system: PI4KA; test: Kinobeads competition binding: PI4KA; parameters: species or system human; settings: target PI4KA

T5 sequence (Q00535 whole entry): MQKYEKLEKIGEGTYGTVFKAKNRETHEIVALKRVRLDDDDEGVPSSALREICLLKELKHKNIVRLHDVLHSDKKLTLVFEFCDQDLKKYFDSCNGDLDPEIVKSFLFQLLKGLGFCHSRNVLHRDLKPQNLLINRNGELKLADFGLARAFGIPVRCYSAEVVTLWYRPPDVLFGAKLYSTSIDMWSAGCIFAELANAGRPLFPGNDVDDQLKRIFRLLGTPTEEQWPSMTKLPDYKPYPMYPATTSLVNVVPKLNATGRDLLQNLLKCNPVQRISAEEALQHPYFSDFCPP
T4 sequence (P08581 25-1390): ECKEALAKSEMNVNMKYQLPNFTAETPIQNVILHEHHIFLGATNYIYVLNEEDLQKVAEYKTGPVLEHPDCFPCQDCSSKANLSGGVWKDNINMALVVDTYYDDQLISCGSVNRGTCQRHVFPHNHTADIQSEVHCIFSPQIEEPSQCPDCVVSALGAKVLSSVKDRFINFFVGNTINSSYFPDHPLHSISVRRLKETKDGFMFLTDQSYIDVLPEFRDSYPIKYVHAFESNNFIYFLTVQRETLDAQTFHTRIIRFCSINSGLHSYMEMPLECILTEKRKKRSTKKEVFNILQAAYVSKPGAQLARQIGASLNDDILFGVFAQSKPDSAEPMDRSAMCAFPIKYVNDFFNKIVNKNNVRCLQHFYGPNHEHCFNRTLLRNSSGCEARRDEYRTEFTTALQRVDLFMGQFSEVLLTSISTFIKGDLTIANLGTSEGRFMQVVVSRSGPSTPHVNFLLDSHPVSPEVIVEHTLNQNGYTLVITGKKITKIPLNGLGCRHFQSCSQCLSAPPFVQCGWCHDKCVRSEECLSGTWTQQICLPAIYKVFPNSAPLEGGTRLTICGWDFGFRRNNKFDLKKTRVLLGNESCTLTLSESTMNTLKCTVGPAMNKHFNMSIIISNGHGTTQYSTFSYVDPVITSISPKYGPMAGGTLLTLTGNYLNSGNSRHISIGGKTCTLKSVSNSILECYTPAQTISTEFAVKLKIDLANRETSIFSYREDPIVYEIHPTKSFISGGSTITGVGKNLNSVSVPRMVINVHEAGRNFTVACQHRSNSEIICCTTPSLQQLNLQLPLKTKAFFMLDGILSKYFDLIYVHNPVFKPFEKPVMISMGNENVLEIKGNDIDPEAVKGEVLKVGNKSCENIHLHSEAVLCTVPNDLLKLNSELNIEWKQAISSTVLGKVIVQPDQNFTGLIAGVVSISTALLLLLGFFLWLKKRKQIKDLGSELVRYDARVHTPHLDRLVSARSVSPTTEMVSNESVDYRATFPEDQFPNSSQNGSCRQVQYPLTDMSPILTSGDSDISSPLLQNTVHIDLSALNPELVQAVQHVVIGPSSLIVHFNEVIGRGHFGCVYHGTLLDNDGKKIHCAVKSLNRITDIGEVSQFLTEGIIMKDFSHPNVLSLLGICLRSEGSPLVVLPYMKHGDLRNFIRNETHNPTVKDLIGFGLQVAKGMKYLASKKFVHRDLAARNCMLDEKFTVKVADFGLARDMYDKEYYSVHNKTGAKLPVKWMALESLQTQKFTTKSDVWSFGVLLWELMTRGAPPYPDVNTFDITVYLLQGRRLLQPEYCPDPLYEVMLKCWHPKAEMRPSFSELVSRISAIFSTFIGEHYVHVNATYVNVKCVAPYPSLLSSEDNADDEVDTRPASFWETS
T1 sequence (Q16539 whole entry): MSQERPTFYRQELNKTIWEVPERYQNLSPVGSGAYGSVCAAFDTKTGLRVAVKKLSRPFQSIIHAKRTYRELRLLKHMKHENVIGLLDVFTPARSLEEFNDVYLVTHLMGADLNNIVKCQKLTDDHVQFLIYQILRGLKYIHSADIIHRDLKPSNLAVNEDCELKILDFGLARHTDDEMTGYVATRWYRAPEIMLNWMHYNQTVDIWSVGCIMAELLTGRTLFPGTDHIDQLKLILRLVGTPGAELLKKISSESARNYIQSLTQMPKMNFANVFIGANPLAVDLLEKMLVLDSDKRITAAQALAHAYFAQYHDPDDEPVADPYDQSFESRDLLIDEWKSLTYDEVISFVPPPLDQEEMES
T6 sequence (P16591 whole entry): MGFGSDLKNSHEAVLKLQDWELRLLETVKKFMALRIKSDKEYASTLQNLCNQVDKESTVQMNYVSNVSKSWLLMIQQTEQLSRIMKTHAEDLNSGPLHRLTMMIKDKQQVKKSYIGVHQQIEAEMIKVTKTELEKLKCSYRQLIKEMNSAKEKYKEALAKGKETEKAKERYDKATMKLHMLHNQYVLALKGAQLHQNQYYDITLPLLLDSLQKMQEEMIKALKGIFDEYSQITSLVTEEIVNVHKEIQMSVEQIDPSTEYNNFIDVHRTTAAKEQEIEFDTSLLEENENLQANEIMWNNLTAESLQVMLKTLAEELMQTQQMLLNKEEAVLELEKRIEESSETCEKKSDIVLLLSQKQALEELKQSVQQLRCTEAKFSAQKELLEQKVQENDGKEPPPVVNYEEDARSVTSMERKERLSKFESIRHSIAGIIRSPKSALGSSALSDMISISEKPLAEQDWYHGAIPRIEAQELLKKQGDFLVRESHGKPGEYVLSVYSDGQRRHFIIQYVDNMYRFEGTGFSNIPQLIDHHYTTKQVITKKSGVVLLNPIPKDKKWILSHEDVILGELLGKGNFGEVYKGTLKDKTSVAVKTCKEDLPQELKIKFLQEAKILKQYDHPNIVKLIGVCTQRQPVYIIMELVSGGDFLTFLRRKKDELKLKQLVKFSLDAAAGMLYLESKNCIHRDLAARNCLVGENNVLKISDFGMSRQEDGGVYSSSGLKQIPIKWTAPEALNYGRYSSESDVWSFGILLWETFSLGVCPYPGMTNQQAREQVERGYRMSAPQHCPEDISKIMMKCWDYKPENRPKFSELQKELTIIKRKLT
T3 sequence (P11362 22-822): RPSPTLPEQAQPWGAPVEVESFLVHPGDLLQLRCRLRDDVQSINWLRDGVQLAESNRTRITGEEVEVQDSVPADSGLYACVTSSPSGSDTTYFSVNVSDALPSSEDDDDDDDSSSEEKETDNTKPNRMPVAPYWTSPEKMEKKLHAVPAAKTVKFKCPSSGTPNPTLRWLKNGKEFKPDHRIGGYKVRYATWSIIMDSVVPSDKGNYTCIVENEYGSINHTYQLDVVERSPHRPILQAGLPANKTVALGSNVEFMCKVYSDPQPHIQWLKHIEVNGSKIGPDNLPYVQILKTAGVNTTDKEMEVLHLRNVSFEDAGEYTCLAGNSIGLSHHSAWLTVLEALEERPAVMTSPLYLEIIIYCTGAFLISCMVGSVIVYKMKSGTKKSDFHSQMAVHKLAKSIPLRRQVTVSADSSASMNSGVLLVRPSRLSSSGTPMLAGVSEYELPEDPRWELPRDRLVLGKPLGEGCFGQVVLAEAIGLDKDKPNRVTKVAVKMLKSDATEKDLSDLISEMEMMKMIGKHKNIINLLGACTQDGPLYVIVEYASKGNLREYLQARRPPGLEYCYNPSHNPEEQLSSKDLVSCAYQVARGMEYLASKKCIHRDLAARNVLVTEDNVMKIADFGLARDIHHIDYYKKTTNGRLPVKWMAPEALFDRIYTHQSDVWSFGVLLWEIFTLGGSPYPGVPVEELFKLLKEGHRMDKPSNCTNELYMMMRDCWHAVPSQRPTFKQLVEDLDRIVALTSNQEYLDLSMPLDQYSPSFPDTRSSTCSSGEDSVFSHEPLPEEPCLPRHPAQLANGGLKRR

Structure (SMILES) | CATDS [1] | CATDS [2] | CATDS [3] | CATDS [4] | CATDS [5] | CATDS [6] | CATDS [7] | CATDS [8] | CATDS [9] | CATDS [10] | CATDS [11] | CATDS [12] | CATDS [13] | Kinobeads Data ([4]; FLT3)
Nc1ncnc2[nH]c(-c3ccccc3)nc12 [AH5015_KCGS] | 0 | 0 | 0 | 0 | 0.03489 | 0 | 0 | 0 | 0 | 0 | 0.03222 | 0 | 0 | –
CCN1CCN(Cc2ccc(Nc3ncc(F)c(-c4cc(F)c5nc(C)n(C(C)C)c5c4)n3)nc2)CC1 [Abemaciclib] | 0 | 0 | 0 | 0 | 0 | 0 | 0 | 0 | 0 | 0 | 0 | 0 | 0 | –
CN(C)C/C=C/C(=O)Nc1cc2c(Nc3ccc(F)c(Cl)c3)ncnc2cc1O[C@H]1CCOC1 [Afatinib] | 0 | – | 0 | – | – | 0 | 0 | 0 | 0 | – | 0 | – | 0 | –
CCc1cc2c(cc1N1CCC(N3CCOCC3)CC1)C(C)(C)c1[nH]c3cc(C#N)ccc3c1C2=O [Alectinib] | 0 | 0 | 0 | 0 | 0 | 0 | 0 | 0 | 0 | 0 | 0 | 0 | 0 | –
N#CC1(c2ccc(NC(=O)c3cccnc3NCc3ccncc3)cc2)CCCC1 [Apatinib] | 0 | 0 | 0 | 0 | 0 | 0 | 0 | 0 | 0 | 0 | 0 | 0 | 0 | –
COc1cc(Nc2ncc3c(C)nc(-c4cc5ccccc5[nH]4)n3n2)cc(OC)c1OC [GW869516X] | – | – | – | – | – | – | – | – | – | – | – | – | – | no target
